Laboratory results published in article PMC8781450, “Isoquinoline Alkaloids as Protein Tyrosine Phosphatase Inhibitors from a Deep-Sea-Derived Fungus Aspergillus puniceus” (Marine Drugs, 2022).
pIC50: −log10 of the molar value. Converted amounts (≈) assume the structure as drawn.

Test system: not listed separately
Experiment: Cytotoxicity by CCK-8 method
Type: cell-based
Details: human, H1975 lung adenocarcinoma cells, read-out: Cytotoxicity (IC50) H1975 Cell (after 24 h)
Procedure: Cytotoxic activity was evaluated using human lung adenocarcinoma cell line H1975 by CCK-8 method. Briefly, each of the test compounds was dissolved in DMSO and further diluted to give final concentrations of 80, 40, 20, 10, 5, 2.5, and 1.25 µg/mL, respectively. H1975 cells (5 × 10^3 cells/plate) were seeded in 96-well plates and treated with compounds at the indicated concentration for 24 h, and then 10 μL CCK-8 reagent was added to each well, and the plates were incubated at 37 °C for another 4 h. Next, the optical density was measured at a wavelength of 450 nm with the Bio-Rad (Hercules, CA, USA) microplate reader. Dose–response curves were generated, and the IC50 values were calculated from the linear portion of log dose–response curves.

Row | SMILES | IC50 at 24 h [µM]
1 | COc1cc2ccncc2c(O)c1Cc1c(OC)cc(O)c2cnccc12 [Compound 4, Puniceusine D] | 11
2 | CCCCC(CC)COC(=O)CC[n+]1ccc2cc(OC)c(C)c(O)c2c1 (stereo not drawn) [Compound 14, Puniceusine N] | > 80
3 | CCc1cc(O)c(Cc2c(OC)cc3ccncc3c2O)c(=O)o1 [Compound 12, Puniceusine L] | > 80
4 | COc1cc(O)c2cnccc2c1 [Compound 1, 6-methoxy-8-hydroxy-isoquinolin] | 76.2
5 | COc1cc2ccncc2c(O)c1Cc1c(O)c(OC)c2c(c1O)C(=O)O[C@H]2[C@@H](C)O [Compound 11, Puniceusine K] | > 80
6 | COc1cc2ccncc2c(O)c1C [Compound 2, 6-methoxy-7-methyl-8-hydroxy-isoquinolin] | > 80
7 | CCc1oc(=O)c(Cc2c(OC)cc3ccncc3c2O)c(O)c1C [Compound 13, Puniceusine M] | > 80
8 | COc1cc2ccncc2c2c(C)c(O)c(C)cc12 [Compound 7, Puniceusine G] | > 80

Target: LAR (Homo sapiens, UniProt P10586)
Experiment: Protein phosphatase inhibition assay, LAR
Details: not given

Sequence of LAR (P10586 30-1907): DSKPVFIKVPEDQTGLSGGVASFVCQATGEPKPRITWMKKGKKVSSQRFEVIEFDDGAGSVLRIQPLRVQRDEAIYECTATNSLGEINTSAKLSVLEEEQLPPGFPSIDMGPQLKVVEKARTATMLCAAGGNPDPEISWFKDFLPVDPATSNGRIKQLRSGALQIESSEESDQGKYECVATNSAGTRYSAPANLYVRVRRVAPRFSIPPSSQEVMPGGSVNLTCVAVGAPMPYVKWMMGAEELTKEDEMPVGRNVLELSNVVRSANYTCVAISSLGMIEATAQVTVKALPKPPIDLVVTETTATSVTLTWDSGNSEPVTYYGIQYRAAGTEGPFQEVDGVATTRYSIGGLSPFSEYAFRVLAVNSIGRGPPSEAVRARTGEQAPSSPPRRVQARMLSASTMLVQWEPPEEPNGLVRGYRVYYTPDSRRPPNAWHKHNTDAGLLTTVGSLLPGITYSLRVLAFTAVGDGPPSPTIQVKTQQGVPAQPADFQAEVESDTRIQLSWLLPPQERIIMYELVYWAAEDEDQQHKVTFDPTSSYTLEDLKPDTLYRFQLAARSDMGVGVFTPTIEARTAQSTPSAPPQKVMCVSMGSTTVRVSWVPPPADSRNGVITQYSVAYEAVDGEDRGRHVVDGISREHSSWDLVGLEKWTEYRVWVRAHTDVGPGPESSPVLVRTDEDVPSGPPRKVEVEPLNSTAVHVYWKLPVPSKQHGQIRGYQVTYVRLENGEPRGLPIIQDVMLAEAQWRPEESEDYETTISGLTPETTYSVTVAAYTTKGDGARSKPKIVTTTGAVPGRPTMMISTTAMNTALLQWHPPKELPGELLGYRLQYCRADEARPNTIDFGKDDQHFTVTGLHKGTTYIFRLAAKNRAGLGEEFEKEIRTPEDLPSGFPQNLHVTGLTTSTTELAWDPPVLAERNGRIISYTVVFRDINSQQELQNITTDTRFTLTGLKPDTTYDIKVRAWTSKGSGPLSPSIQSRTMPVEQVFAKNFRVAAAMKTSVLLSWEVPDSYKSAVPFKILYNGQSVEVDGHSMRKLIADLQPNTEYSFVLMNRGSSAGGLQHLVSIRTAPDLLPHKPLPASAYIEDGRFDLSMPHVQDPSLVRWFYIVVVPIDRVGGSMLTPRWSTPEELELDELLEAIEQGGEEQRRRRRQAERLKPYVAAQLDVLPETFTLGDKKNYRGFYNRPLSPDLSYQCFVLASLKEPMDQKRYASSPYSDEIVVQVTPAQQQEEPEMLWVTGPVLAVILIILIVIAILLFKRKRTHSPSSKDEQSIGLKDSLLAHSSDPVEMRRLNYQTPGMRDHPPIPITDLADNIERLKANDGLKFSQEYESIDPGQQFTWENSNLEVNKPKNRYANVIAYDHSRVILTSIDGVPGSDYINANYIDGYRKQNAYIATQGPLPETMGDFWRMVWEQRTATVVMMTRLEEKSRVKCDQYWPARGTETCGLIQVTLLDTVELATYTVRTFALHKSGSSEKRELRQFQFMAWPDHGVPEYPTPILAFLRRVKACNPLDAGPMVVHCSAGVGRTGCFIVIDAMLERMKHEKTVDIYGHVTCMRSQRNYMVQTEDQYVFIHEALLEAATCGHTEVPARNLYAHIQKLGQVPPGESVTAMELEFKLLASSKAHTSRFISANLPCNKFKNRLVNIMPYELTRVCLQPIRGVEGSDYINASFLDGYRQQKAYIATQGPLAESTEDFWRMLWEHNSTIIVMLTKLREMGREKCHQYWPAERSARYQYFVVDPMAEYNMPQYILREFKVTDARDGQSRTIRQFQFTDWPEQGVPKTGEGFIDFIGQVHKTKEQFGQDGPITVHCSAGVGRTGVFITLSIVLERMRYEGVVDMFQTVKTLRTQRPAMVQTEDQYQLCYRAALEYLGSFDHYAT

Row | pIC50 | SMILES
9 | < 3.70 | CCCCC(CC)COC(=O)CC[n+]1ccc2cc(OC)c(C)c(O)c2c1 (stereo not drawn) [Compound 14, Puniceusine N]
10 | 3.82 | CCc1cc(O)c(Cc2c(OC)cc3ccncc3c2O)c(=O)o1 [Compound 12, Puniceusine L]
11 | 4.00 | COc1cc(O)c2cnccc2c1 [Compound 1, 6-methoxy-8-hydroxy-isoquinolin]
12 | < 3.70 | COc1cc2ccncc2c(O)c1Cc1c(O)c(OC)c2c(c1O)C(=O)O[C@H]2[C@@H](C)O [Compound 11, Puniceusine K]
13 | < 3.70 | COc1cc2ccncc2c(O)c1C [Compound 2, 6-methoxy-7-methyl-8-hydroxy-isoquinolin]
14 | 4.49 | CCc1oc(=O)c(Cc2c(OC)cc3ccncc3c2O)c(O)c1C [Compound 13, Puniceusine M]
15 | < 3.70 | COc1cc2ccncc2c2c(C)c(O)c(C)cc12 [Compound 7, Puniceusine G]

Test system: methicillin-resistant S. aureus (MRSA)
Experiment: Antibacterial 2-fold dilution assay, MRSA
Details: Staphylococcus aureus, 12 h, read-out: MIC, methicillin-resistant S. aureus (MRSA)
Procedure: (§1) Antibacterial activities of 1–14 against E. coli, S. aureus and MRSA were evaluated using the 2-fold dilution assay in 96-microwell plates. Briefly, all the indicator bacteria were cultured on Luria−Bertani (LB) agar plates at 37 °C for 12 h, and then a single colony was picked into LB liquid medium and cultivated on a rotary shaker at 37 °C for 12 h. Then, the bacterial suspensions with LB medium were diluted until the difference of the OD600 values between the bacterial suspensions and the medium was 0.01~0.02. […] The 96-well plates were incubated at 37 °C for 12 h. MIC value was determined as the lowest concentration with no visible bacterial growth. Ampicillin was used as the positive control and DMSO as the negative control. All experiments were performed three times.

Row | MIC [µg/mL] | SMILES
16 | 100 | CCCCC(CC)COC(=O)CC[n+]1ccc2cc(OC)c(C)c(O)c2c1 (stereo not drawn) [Compound 14, Puniceusine N]

Target: T1, CD45 (Homo sapiens, UniProt P08575)
T1 sequence (P08575 26-1306): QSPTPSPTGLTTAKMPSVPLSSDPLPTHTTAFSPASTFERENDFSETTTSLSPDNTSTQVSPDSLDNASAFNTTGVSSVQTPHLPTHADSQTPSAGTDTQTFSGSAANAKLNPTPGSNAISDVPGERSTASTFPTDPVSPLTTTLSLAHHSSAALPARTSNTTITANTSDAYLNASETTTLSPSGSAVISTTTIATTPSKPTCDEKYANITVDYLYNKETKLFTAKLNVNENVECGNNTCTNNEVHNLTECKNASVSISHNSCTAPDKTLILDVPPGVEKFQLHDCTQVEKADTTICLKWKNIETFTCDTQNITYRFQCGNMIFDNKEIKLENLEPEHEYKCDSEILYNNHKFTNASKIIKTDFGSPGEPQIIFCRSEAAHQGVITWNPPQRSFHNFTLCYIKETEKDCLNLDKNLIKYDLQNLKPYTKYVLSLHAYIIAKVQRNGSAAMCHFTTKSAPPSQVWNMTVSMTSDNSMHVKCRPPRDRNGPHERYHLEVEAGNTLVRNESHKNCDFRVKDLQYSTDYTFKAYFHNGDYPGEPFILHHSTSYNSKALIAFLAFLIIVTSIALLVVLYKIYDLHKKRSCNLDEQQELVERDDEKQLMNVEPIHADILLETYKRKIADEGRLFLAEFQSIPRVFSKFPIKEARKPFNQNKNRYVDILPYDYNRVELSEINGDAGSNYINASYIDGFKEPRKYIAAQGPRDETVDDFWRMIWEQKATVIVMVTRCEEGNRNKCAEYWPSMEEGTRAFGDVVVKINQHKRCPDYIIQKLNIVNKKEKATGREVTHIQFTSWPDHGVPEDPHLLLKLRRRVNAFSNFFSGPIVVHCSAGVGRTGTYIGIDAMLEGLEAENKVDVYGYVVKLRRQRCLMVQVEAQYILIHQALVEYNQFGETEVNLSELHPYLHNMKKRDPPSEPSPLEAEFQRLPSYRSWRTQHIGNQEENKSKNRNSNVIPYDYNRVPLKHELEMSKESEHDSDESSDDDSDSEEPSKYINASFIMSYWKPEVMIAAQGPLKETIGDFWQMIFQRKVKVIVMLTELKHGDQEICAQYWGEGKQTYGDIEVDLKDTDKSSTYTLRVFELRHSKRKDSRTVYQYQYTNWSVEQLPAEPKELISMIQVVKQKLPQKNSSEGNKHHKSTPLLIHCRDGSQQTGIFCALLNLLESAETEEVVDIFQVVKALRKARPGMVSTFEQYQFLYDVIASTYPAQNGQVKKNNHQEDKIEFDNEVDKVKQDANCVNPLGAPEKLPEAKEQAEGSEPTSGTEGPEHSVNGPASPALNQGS
Experiment: Protein phosphatase inhibition assay, CD45
Details: not given

Row | pIC50 | SMILES
17 | 5.25 | COc1cc2ccncc2c(O)c1Cc1c(OC)cc(O)c2cnccc12 [Compound 4, Puniceusine D]
18 | 3.70 | CCCCC(CC)COC(=O)CC[n+]1ccc2cc(OC)c(C)c(O)c2c1 (stereo not drawn) [Compound 14, Puniceusine N]
19 | 4.41 | CCc1cc(O)c(Cc2c(OC)cc3ccncc3c2O)c(=O)o1 [Compound 12, Puniceusine L]
20 | 4.53 | COc1cc(O)c2cnccc2c1 [Compound 1, 6-methoxy-8-hydroxy-isoquinolin]
21 | 4.00 | COc1cc2ccncc2c(O)c1Cc1c(O)c(OC)c2c(c1O)C(=O)O[C@H]2[C@@H](C)O [Compound 11, Puniceusine K]
22 | < 3.70 | COc1cc2ccncc2c(O)c1C [Compound 2, 6-methoxy-7-methyl-8-hydroxy-isoquinolin]
23 | 4.95 | CCc1oc(=O)c(Cc2c(OC)cc3ccncc3c2O)c(O)c1C [Compound 13, Puniceusine M]
24 | < 3.70 | COc1cc2ccncc2c2c(C)c(O)c(C)cc12 [Compound 7, Puniceusine G]

Target: SHP1 (Homo sapiens, UniProt P29350)
Experiment: Protein phosphatase inhibition assay, SHP1
Details: not given

Sequence of SHP1 (P29350 whole entry): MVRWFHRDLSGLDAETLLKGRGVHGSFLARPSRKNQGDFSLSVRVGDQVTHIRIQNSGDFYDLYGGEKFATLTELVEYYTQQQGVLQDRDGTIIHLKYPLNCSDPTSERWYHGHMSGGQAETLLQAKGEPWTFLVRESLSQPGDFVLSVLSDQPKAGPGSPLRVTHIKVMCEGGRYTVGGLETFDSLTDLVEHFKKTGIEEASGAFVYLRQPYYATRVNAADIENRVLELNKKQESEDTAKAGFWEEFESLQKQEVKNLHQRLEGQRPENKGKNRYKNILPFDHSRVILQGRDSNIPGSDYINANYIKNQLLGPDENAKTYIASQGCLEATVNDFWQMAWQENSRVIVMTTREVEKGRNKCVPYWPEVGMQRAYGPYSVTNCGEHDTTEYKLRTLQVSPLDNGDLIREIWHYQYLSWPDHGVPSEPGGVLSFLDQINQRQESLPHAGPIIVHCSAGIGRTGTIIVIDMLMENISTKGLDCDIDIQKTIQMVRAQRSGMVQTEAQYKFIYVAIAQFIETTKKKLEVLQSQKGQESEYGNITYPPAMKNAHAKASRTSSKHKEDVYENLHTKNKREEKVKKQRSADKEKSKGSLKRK

Row | pIC50 | SMILES
25 | 3.89 | COc1cc2ccncc2c(O)c1Cc1c(OC)cc(O)c2cnccc12 [Compound 4, Puniceusine D]
26 | < 3.70 | CCCCC(CC)COC(=O)CC[n+]1ccc2cc(OC)c(C)c(O)c2c1 (stereo not drawn) [Compound 14, Puniceusine N]
27 | 3.93 | CCc1cc(O)c(Cc2c(OC)cc3ccncc3c2O)c(=O)o1 [Compound 12, Puniceusine L]
28 | 4.42 | COc1cc(O)c2cnccc2c1 [Compound 1, 6-methoxy-8-hydroxy-isoquinolin]
29 | 3.84 | COc1cc2ccncc2c(O)c1Cc1c(O)c(OC)c2c(c1O)C(=O)O[C@H]2[C@@H](C)O [Compound 11, Puniceusine K]
30 | < 3.70 | COc1cc2ccncc2c(O)c1C [Compound 2, 6-methoxy-7-methyl-8-hydroxy-isoquinolin]
31 | 4.40 | CCc1oc(=O)c(Cc2c(OC)cc3ccncc3c2O)c(O)c1C [Compound 13, Puniceusine M]
32 | < 3.70 | COc1cc2ccncc2c2c(C)c(O)c(C)cc12 [Compound 7, Puniceusine G]

Target: T2, TCPTP (Homo sapiens, UniProt P17706)
T2 sequence (P17706 1-415): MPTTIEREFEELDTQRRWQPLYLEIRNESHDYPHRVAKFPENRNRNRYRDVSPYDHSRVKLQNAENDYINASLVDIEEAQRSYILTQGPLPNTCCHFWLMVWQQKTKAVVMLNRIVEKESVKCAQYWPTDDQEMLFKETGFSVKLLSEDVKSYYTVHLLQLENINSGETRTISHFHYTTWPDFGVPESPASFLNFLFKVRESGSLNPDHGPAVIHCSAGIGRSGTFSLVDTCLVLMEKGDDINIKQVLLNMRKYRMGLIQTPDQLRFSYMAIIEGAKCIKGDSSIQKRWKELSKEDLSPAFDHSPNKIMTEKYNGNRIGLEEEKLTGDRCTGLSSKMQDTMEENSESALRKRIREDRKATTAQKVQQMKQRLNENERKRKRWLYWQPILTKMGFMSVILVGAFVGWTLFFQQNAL
Experiment: Protein phosphatase inhibition assay, TCPTP
Details: not given

Row | pIC50 | SMILES
33 | < 3.70 | COc1cc2ccncc2c(O)c1Cc1c(OC)cc(O)c2cnccc12 [Compound 4, Puniceusine D]
34 | < 3.70 | CCCCC(CC)COC(=O)CC[n+]1ccc2cc(OC)c(C)c(O)c2c1 (stereo not drawn) [Compound 14, Puniceusine N]
35 | < 3.70 | CCc1cc(O)c(Cc2c(OC)cc3ccncc3c2O)c(=O)o1 [Compound 12, Puniceusine L]
36 | 3.71 | COc1cc(O)c2cnccc2c1 [Compound 1, 6-methoxy-8-hydroxy-isoquinolin]
37 | < 3.70 | COc1cc2ccncc2c(O)c1Cc1c(O)c(OC)c2c(c1O)C(=O)O[C@H]2[C@@H](C)O [Compound 11, Puniceusine K]
38 | < 3.70 | COc1cc2ccncc2c(O)c1C [Compound 2, 6-methoxy-7-methyl-8-hydroxy-isoquinolin]
39 | < 3.70 | CCc1oc(=O)c(Cc2c(OC)cc3ccncc3c2O)c(O)c1C [Compound 13, Puniceusine M]
40 | < 3.70 | COc1cc2ccncc2c2c(C)c(O)c(C)cc12 [Compound 7, Puniceusine G]

Target: T3, PTP1B (Homo sapiens, UniProt P18031)
T3 sequence (P18031 1-435): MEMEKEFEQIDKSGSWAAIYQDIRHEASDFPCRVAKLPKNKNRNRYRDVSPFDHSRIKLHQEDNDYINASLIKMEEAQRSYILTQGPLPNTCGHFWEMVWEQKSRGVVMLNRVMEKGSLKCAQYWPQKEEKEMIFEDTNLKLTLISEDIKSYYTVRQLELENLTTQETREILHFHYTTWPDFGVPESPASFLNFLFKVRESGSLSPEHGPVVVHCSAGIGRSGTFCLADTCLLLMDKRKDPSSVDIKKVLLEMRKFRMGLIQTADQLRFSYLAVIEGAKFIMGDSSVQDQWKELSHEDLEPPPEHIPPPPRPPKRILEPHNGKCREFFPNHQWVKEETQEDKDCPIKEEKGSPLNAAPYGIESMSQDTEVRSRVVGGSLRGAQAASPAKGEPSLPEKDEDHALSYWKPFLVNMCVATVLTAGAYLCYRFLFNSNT
Experiment: Protein phosphatase inhibition assay, PTP1B
Details: not given

Row | pIC50 | SMILES
41 | 3.82 | COc1cc2ccncc2c(O)c1Cc1c(OC)cc(O)c2cnccc12 [Compound 4, Puniceusine D]
42 | < 3.70 | CCCCC(CC)COC(=O)CC[n+]1ccc2cc(OC)c(C)c(O)c2c1 (stereo not drawn) [Compound 14, Puniceusine N]
43 | 3.77 | CCc1cc(O)c(Cc2c(OC)cc3ccncc3c2O)c(=O)o1 [Compound 12, Puniceusine L]
44 | 3.74 | COc1cc(O)c2cnccc2c1 [Compound 1, 6-methoxy-8-hydroxy-isoquinolin]
45 | 3.72 | COc1cc2ccncc2c(O)c1Cc1c(O)c(OC)c2c(c1O)C(=O)O[C@H]2[C@@H](C)O [Compound 11, Puniceusine K]
46 | < 3.70 | COc1cc2ccncc2c(O)c1C [Compound 2, 6-methoxy-7-methyl-8-hydroxy-isoquinolin]
47 | 4.42 | CCc1oc(=O)c(Cc2c(OC)cc3ccncc3c2O)c(O)c1C [Compound 13, Puniceusine M]
48 | < 3.70 | COc1cc2ccncc2c2c(C)c(O)c(C)cc12 [Compound 7, Puniceusine G]

Test system: Escherichia coli
Experiment: Antibacterial 2-fold dilution assay, E. coli
Details: 12 h, read-out: MIC, Escherichia coli
Procedure: as §1

Row | MIC [µg/mL] | SMILES
49 | 100 (≈ 276 µM) | COc1cc2ccncc2c(O)c1Cc1c(OC)cc(O)c2cnccc12 [Compound 4, Puniceusine D]
50 | 100 | CCCCC(CC)COC(=O)CC[n+]1ccc2cc(OC)c(C)c(O)c2c1 (stereo not drawn) [Compound 14, Puniceusine N]

Test system: Staphylococcus aureus
Experiment: Antibacterial 2-fold dilution assay, S. aureus
Details: 12 h, read-out: MIC, Staphylococcus aureus
Procedure: as §1

Row | MIC [µg/mL] | SMILES
51 | 100 | CCCCC(CC)COC(=O)CC[n+]1ccc2cc(OC)c(C)c(O)c2c1 (stereo not drawn) [Compound 14, Puniceusine N]
